We go through nine compounds from ChEMBL document CHEMBL2203228, “Structural modifications of a 3-methoxy-2-aminopyridine compound to reduce potential for mutagenicity and time-dependent drug-drug interaction” (Bioorg Med Chem Lett, 2012).

Values after ≈ are worked out from the molar mass of the structure shown.

One data set deals with Salmonella typhimurium. The data set is described as follows: Mutagenic activity in Salmonella typhimurium assessed as fold increase in colony forming units by Bioluminescent Ames assay relative to control. It counts as toxicity, organism-based. As to conditions: salmonella enterica subsp. enterica serovar typhimurium.
Data set [1] has as its target T1, Cytochrome P450 3A4 (Homo sapiens, UniProt P08684). The data set is described as follows: Time dependent inhibition of human liver microsome CYP3A4 assessed as change in midazolam metabolism at 60 uM by two-step reaction. It counts as ADME. More on the design: scale not given: the % may be the effect or the level left. As to conditions: microsomes.
Data set [2] can be described thus: Oral bioavailability in rat. It counts as ADME, organism-based. The settings on record: in vivo.
The target in data set [3] is T1, Cytochrome P450 3A4. Description: Time dependent inhibition of CYP3A4. It counts as ADME. As to conditions: TDE = time-dependent effect.
Data set [4] in a line: Half life in rat. The class given is ADME, organism-based. As to conditions: in vivo.
Data set [5] can be described thus: Solubility of the compound. It counts as physicochemical.
Data set [6] is described as follows: Clearance in rat. It counts as ADME, organism-based. The settings on record: in vivo.
In data set [7] the target is Serine/threonine-protein kinase B-raf (Homo sapiens, UniProt P15056, V600E). The data set is described as follows: Inhibition of B-Raf V600E mutant -mediated MEK phosphorylation.
Chain of Serine/threonine-protein kinase B-raf (P15056 2-766 V600E limits assumed): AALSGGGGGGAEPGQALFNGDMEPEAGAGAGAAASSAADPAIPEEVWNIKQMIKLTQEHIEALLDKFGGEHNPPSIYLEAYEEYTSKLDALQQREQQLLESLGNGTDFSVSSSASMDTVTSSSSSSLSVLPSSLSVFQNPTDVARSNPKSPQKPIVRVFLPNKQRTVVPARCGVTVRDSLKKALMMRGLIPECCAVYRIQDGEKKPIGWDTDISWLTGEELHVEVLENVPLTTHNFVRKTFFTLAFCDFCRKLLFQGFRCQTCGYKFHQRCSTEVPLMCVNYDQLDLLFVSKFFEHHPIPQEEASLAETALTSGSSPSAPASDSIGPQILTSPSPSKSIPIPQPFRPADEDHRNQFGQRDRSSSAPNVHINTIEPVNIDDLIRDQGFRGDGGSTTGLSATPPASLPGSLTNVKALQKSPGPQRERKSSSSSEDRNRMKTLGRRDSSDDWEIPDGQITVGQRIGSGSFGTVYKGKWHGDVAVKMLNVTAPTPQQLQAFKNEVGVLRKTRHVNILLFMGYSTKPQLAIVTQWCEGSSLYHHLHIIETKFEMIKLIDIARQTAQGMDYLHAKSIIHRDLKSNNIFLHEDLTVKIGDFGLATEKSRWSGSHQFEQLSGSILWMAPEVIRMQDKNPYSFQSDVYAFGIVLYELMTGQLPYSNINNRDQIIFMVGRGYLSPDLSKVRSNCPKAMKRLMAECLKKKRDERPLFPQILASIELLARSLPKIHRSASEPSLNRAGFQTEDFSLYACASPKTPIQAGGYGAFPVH

T1 sequence (P08684 whole entry): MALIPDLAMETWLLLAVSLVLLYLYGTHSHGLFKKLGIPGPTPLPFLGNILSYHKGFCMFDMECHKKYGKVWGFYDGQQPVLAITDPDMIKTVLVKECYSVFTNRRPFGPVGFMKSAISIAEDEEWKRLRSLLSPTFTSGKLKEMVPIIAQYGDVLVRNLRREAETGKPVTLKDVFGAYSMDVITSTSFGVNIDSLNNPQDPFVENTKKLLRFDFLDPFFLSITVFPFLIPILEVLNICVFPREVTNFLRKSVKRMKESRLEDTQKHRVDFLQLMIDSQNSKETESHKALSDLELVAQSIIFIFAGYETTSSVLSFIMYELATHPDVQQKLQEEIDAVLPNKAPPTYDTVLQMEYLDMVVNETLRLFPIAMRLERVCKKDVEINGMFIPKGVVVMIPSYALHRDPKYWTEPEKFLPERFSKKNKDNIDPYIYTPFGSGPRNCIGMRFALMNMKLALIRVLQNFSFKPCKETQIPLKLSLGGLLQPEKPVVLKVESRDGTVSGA

Take `CC(=O)c1cc(-c2nn(C(C)C)cc2-c2ccnc(NC[C@H](C)O)n2)cnc1N`: the “fold change (FC)” value in the data set with Salmonella typhimurium was below 2. The Activity on Cytochrome P450 3A4 [1] is recorded as below 30%.
On to `COc1cncc(-c2nn(C(C)C)cc2-c2ccnc(NC[C@H](C)O)n2)c1`, for which the “fold change (FC)” value in the data set on Salmonella typhimurium is listed as below 2. In addition, at Cytochrome P450 3A4 [1], the Activity was below 30%.
The matching figures for `CC(C)n1cc(-c2ccnc(NC[C@H](C)O)n2)c(-c2cnc3[nH]ncc3c2)n1`: below 2 and below 30%.
Regarding `CC(C)n1cc(-c2ccnc(NC[C@H](C)O)n2)c(-c2cnc3[nH]ccc3c2)n1`, the “fold change (FC)” value in the data set with Salmonella typhimurium was below 2. In addition, on Cytochrome P450 3A4 [1], the Activity was found to be 11%.
The matching figures for `Cc1c[nH]c2ncc(-c3nn(C(C)C)cc3-c3ccnc(NC[C@H](C)O)n3)cc12`: below 2 and 11%.
The corresponding values for `CC(C)n1cc(-c2ccnc(NC[C@H](C)O)n2)c(-c2cnc3[nH]cc(Cl)c3c2)n1` are below 2 and 11%.
For the compound `COc1cc(-c2nn(C(C)C)cc2-c2ccnc(NC[C@H](C)O)n2)cnc1N`, in the data set with Salmonella typhimurium, the Activity result is given as “Non-toxic” and the “fold change (FC)” value came out at 4. This compound also returned a bioavailability in data set [2] of 43%. Further, at Cytochrome P450 3A4 [3], the “inhibition (INH)” value is given as “tde”. In data set [4], this compound had a half-life of 4.43 h. In data set [5], this compound had a solubility of 503 µM (≈ 193 µg/mL). The Activity on Cytochrome P450 3A4 [1] worked out at 13%. The compound also gave a clearance in data set [6] of 56.3 mL/min/kg. In addition, the IC50 in data set [7] was found to be 6.5 nM.
As for `COc1cc(-c2nn(C(C)C)cc2-c2ccnc(NC[C@H](C)O)n2)c(C)nc1N`, the Activity entry with Salmonella typhimurium is reported as “Toxic”.
Turning to `COc1nc(-c2nn(C(C)C)cc2-c2ccnc(NC[C@H](C)O)n2)cnc1N`, the “fold change (FC)” value with Salmonella typhimurium is 4. In addition, the Activity at Cytochrome P450 3A4 [1] was determined as 30%.
